Source: patent US20240239775A1, “FXR REGULATOR, PREPARATION METHOD THEREFOR, PHARMACEUTICAL COMPOSITION THEREOF AND USE THEREOF” (QINGDAO RUIJI MEDICAL TECHNOLOGY CO., LTD., priority 2021, published 2024)
pIC50: −log10 of the molar value.

These compounds were tested against T1, FXR (Homo sapiens, UniProt Q96RI1) (assay: FXR antagonist screening by TR-FRET (LanthaScreen TR-FRET FXR co-activation assay kit)). Details: Table 1.2, FXR antagonistic activity; TR-FRET with CDCA; geometric means of at least two independent runs.
T1 construct: 5 μL of 20 nM FXR-LBD Complete Coregulator buffer G; purchased ThermoFisher PV4833
T1 sequence (Q96RI1 262-486 limits assumed): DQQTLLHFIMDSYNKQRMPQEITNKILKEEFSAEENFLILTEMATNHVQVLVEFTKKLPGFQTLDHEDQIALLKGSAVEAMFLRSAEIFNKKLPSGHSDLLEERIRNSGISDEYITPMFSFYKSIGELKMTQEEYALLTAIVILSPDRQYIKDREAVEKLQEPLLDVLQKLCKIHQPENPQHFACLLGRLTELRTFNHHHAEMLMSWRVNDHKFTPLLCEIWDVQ
Assay type: biochemical
Description: FXR activity was evaluated by time-resolved fluorescence resonance energy transfer (TR-FRET) assay, using LanthaScreen™ TR-FRET FXR co-activation assay kit (ThermoFisher, Cat. PV4833). For agonist screening, 10 μL of Complete Coregulator buffer G containing the corresponding concentration of the compound to be tested, 5 μL of 20 nM FXR-LBD Complete Coregulator buffer G, and 5 μL of 2.0 μM Fluorescein-SRC2-2/20 nM Tb-anti-GST antibody Complete Coregulator buffer G were added to each well of a 384-well black plate (Coring) in sequence. […] Three duplicate wells were set up for each compound, with CDCA as the positive compound and DMSO as the solvent control. For antagonist screening, 5 μL of Complete Coregulator buffer G containing the corresponding concentration of the compound to be tested, 5 μL of 20 nM FXR-LBD Complete Coregulator buffer G, 5 μL of 200 μM CDCA FXR-LBD Complete Coregulator buffer G, and 5 μL of 2.0 μM Fluorescein-SRC2-2/20 nM Tb-anti-GST antibody Complete Coregulator buffer G were added to each well of a 384-well black plate (Coring) in sequence and incubated at room temperature for 10 h. Following operations were the same as those for agonist screening

SMILES | pIC50
CCC(CC)C(=O)N1CCN(c2ccccc2N(CCc2ccccc2)S(=O)(=O)c2ccc3oc(C(=O)O)c(C)c3c2)CC1 [Example F27-S145, 5-(N-(2-(4-(2-ethylbutyryl)piperazin-1-yl)phenyl)-N-phenethylsulfamoyl)3-methylbenzofuran-2-carboxylic acid] | 5.00 to 7.00
Cc1c(C(=O)O)oc2ccc(S(=O)(=O)N(CCc3ccccc3)c3ccccc3N3CCN(C(=O)c4ccno4)CC3)cc12 [Example F27-S146, 5-(N-(2-(4-(isoxazole-5-carbonyl)piperazin-1-yl)phenyl)-N-phenethylsulfamoyl)3-methylbenzofuran-2-carboxylic acid] | 5.00 to 7.00
Cc1c(C(=O)O)oc2ccc(S(=O)(=O)N(CCc3ccccc3)c3ccccc3N3CCC(NC(=O)c4sccc4Br)CC3)cc12 [Example F27-S147, 5-(N-(2-(4-(3-bromothiophene-2-carboxamido)piperidin-1-yl)phenyl)-N-phenethylsulfamoyl)-3-methylbenzofuran-2-carboxylic acid] | 5.00 to 7.00
Cc1c(C(=O)O)oc2ccc(S(=O)(=O)N(CCc3ccccc3)c3ccccc3N3CCC4(CCN(C(=O)c5sccc5Br)C4)CC3)cc12 [Example F27-S148] | 5.00 to 7.00
Cc1c(C(=O)O)oc2ccc(S(=O)(=O)N(CCc3ccccc3)c3ccccc3N3CC4(CCN(C(=O)c5sccc5Br)CC4)C3)cc12 [Example F27-S149, 5-(N-(2-(7-(3-bromothiophene-2-carbonyl)-2,7-diazaspiro[3.5]nonan-2-yl)phenyl)-N-phenethylsulfamoyl)-3-methylbenzofuran-2-carboxylic acid] | 5.00 to 7.00
Cc1c(C(=O)O)oc2ccc(S(=O)(=O)N(CCc3ccccc3)c3ccccc3N3CCC4(CC3)CN(C(=O)c3sccc3Br)C4)cc12 [Example F27-S150] | 5.00 to 7.00
Cc1c(C(=O)O)oc2ccc(S(=O)(=O)N(CCc3ccccc3)c3ccccc3N3CC4CC(C3)N4C(=O)c3sccc3Br)cc12 [Example F27-S151, 5-(N-(2-(6-(3-bromothiophene-2-carbonyl)-3,6-diazabicyclo[3.1.1]heptan-3-yl)phenyl)-N-phenethylsulfamoyl)-3-methylbenzofuran-2-carboxylic acid] | 5.00 to 7.00
Cc1c(C(=O)O)oc2ccc(S(=O)(=O)N(CCc3ccccc3)c3ccccc3N3CCN(C(=O)c4sccc4Br)C[C@@H]3C)cc12 [Example F27-S152, (S)-5-(N-(2-(4-(3-bromothiophene-2-carbonyl)-2-methylpiperazin-1-yl)phenyl)-N-phenethylsulfamoyl)-3-methylbenzofuran-2-carboxylic acid] | 5.00 to 7.00
Cc1c(C(=O)O)oc2ccc(S(=O)(=O)N(CCc3ccccc3)c3ccccc3N3CCN(C(=O)c4sccc4Br)C[C@H]3C)cc12 [Example F27-S153, (R)-5-(N-(2-(4-(3-bromothiophene-2-carbonyl)-2-methylpiperazin-1-yl)phenyl)-N-phenethylsulfamoyl)-3-methylbenzofuran-2-carboxylic acid] | 5.00 to 7.00
Cc1c(C(=O)O)oc2ccc(S(=O)(=O)N(CCc3ccccc3)c3ccccc3N3CCCN(C(=O)c4sccc4Br)CC3)cc12 [Example F27-S154, 5-(N-(2-(4-(3-bromothiophene-2-formyl)-1,4-diazepin-1-yl)phenyl)-N-phenethylsulfamoyl)3-methylbenzofuran-2-carboxylic acid] | 5.00 to 7.00
Cc1c(C(=O)O)oc2ccc(S(=O)(=O)N(CCc3ccccc3)c3ccccc3N3C4CCC3CN(C(=O)c3sccc3Br)C4)cc12 [Example F27-S155, 5-(N-(2-(3-(3-bromothiophene-2-formyl)-3,8-diazepine[3.2.1]cyclooctan-8-yl)phenyl)-N-phenethylsulfamoyl)3-methylbenzofuran-2-carboxylic acid] | 5.00 to 7.00
Cc1c(C(=O)O)oc2ccc(S(=O)(=O)N(CCc3ccccc3)c3ccccc3N3CCN(C(=O)c4sccc4Br)C(C)C3)cc12 (centres unmarked) [Example F27-S156, 5-(N-(2-(4-(3-bromothiophene-2-formyl)-3-methylpiperazin-1-yl)phenyl)-N-phenethylsulfamoyl)3-methylbenzofuran-2-carboxylic acid] | 5.00 to 7.00
Cc1c(C(=O)O)oc2ccc(S(=O)(=O)N(CCc3ccccc3)c3ccccc3N3CC4CC3CN4C(=O)c3sccc3Br)cc12 (centres unmarked) [Example F27-S157, 5-(N-(2-(5-(3-bromothiophene-2-formyl)-2,5-diazabicyclo[2.2.1]hept-2-yl)phenyl)-N-phenethylsulfamoyl)3-methylbenzofuran-2-carboxylic acid] | 5.00 to 7.00
Cc1c(C(=O)O)sc2ccc(S(=O)(=O)N(CCc3ccccc3)c3ccccc3N3CCN(C(=O)c4sccc4Br)CC3)cc12 [Example F27-S158, 5-(N-(2-(4-(3-bromothiophene-2-carbonyl)piperazin-1-yl)phenyl)-N-phenethylsulfamoyl)-3-toluothiophene-2-carboxylic acid] | 5.00 to 7.00
O=C(O)c1cc2cc(S(=O)(=O)N(CCc3ccccc3)c3ccccc3N3CCN(C(=O)c4sccc4Br)CC3)ccc2s1 [Example F27-S159, 5-(N-(2-(4-(3-bromothiophene-2-carbonyl)piperazin-1-yl)phenyl)-N-phenethylsulfamoyl)benzo[b]thiophene-2-carboxylic acid] | 5.00 to 7.00
O=C(O)c1cc2ccc(S(=O)(=O)N(CCc3ccccc3)c3ccccc3N3CCN(C(=O)c4sccc4Br)CC3)cc2s1 [Example F27-S160, 6-(N-(2-(4-(3-bromothiophene-2-carbonyl)piperazin-1-yl)phenyl)-N-phenethylsulfamoyl)benzo[b]thiophene-2-carboxylic acid] | 5.00 to 7.00
O=C(O)c1[nH]c2ccc(S(=O)(=O)N(CCc3ccccc3)c3ccccc3N3CCN(C(=O)c4sccc4Br)CC3)cc2c1Cl [Example F27-S161, 5-(N-(2-(4-(3-bromothiophene-2-carbonyl)piperazin-1-yl)phenyl)-N-phenethylsulfamoyl)-3-chloro-1H-indole-2-carboxylic acid] | 5.00 to 7.00
O=C(O)c1cc2cc(S(=O)(=O)N(CCc3ccccc3)c3ccccc3N3CCN(C(=O)c4sccc4Br)CC3)ccc2o1 [Example F27-S162, 5-(N-(2-(4-(3-bromothiophene-2-formyl)piperazin-1-yl)phenyl)-N-phenethylsulfamoyl)benzofuran-2-carboxylic acid] | 5.00 to 7.00
Cc1c(C(=O)O)oc2cc(S(=O)(=O)N(CCc3ccccc3)c3ccccc3N3CCN(C(=O)c4sccc4Br)CC3)ccc12 [Example F27-S163, 6-(N-(2-(4-(3-bromothiophene-2-formyl)piperazin-1-yl)phenyl)-N-phenethylsulfamoyl)3-methylbenzofuran-2-carboxylic acid] | 5.00 to 7.00
O=C(O)c1cc2ccc(S(=O)(=O)N(CCc3ccccc3)c3ccccc3N3CCN(C(=O)c4sccc4Br)CC3)cc2o1 [Example F27-S164, 6-(N-(2-(4-(3-bromothiophene-2-formyl)piperazin-1-yl)phenyl)-N-phenethylsulfamoyl)benzofuran-2-carboxylic acid] | 5.00 to 7.00
COc1ccc(CCN(c2ccccc2N2CCN(C(=O)c3sccc3Br)CC2)S(=O)(=O)c2ccc3sc(C(=O)O)c(C)c3c2)cc1 [Example F27-S165, 5-(N-(2-(4-(3-bromothiophene-2-formyl)piperazin-1-yl)phenyl)-N-(4-methoxyphenethyl)sulfamoyl)3-methylbenzothiophene-2-carboxylic acid] | 5.00 to 7.00
Cc1c(C(=O)O)sc2ccc(S(=O)(=O)N(CCc3ccc(Cl)cc3)c3ccccc3N3CCN(C(=O)c4sccc4Br)CC3)cc12 [Example F27-S166, 5-(N-(2-(4-(3-bromothiophene-2-carbonyl)piperazin-1-yl)phenyl)-N-(4-chlorophenylethyl)sulfamoyl)-3-methylbenzothiophene-2-carboxylic] | 5.00 to 7.00
Cc1ccc(CCN(c2ccccc2N2CCN(C(=O)c3sccc3Br)CC2)S(=O)(=O)c2ccc3sc(C(=O)O)c(C)c3c2)cc1 [Example F27-S167, 5-(N-(2-(4-(3-bromothiophene-2-carbonyl)piperazin-1-yl)phenyl)-N-(4-methylphenylethyl)sulfamoyl)-3-methylbenzothiophene-2-carboxylic acid] | 5.00 to 7.00
Cc1c(C(=O)O)sc2ccc(S(=O)(=O)N(CCc3ccc(C(=O)O)cc3)c3ccccc3N3CCN(C(=O)c4sccc4Br)CC3)cc12 [Example F27-S168, 5-(N-(2-(4-(3-bromothiophene-2-carbonyl)piperazin-1-yl)phenyl)-N-(4-carboxyphenethyl)sulfamoyl)-3-toluenothiophene-2-carboxylic acid] | 5.00 to 7.00
Cc1c(C(=O)O)sc2ccc(S(=O)(=O)N(CCc3ccc(C#N)cc3)c3ccccc3N3CCN(C(=O)c4sccc4Br)CC3)cc12 [Example F27-S169] | 5.00 to 7.00
Cc1c(C(=O)O)sc2ccc(S(=O)(=O)N(CCc3ccc(C(F)(F)F)cc3)c3ccccc3N3CCN(C(=O)c4sccc4Br)CC3)cc12 [Example F27-S170, 5-(N-(2-(4-(3-bromothiophene-2-carbonyl)piperazin-1-yl)phenyl)-N-(4-(trifluoromethyl)phenethyl)sulfamoyl)-3-methylbenzothiophene-2-carboxylic acid] | 5.00 to 7.00
